Measured values as given in US10413529B2, “Methods of inhibiting cataracts and presbyopia” (UNIVERSITY OF MASSACHUSETTS, priority 2013, dated 2019).
Several values for one entry are separate records, joined by “and”; a condition that tells them apart may be missing. Identical values can stand only once.

How the values were obtained:
γS-crystallin = target: T1, γS-crystallin (Homo sapiens, UniProt P22914); assay: Dynamic light scattering (DLS) of γS-crystallin, hydrodynamic radius of monomer and aggregate; type: biochemical; settings: γS modified with the agent
T1 construct: 6xHis (N); made in house; host or cells: M15pRep E. coli (pQe1 plasmid from King Labs, MIT)
T1 sequence (P22914 1-178): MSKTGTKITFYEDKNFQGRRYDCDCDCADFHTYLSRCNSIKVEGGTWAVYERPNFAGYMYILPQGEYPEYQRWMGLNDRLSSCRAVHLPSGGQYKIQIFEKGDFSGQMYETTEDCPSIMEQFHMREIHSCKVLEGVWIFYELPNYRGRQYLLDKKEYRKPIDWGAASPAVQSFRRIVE
Method: The scattering wave vector is defined as q=4πn sin (θ/2)/λ, where θ is the scattering angle, and λ=514.5, the wavelength of the argon laser in vacuum, and n is 1.33, the refractive index of water. The temperature of the sample was held at constant temperature of 4 to 37±0.1° C. by a circulating water bath. The correlation function was analyzed using CONTIN analysis [NT] times for the correlation functions at measured angles. […] The delay times (τ) were converted to Γ and graphed versus q^2. The slope of the fitted line is the diffusion coefficient (D). […] All solutions were filtered with 0.22 μm hydrophobic PVDF membranes (Fisher Scientific) into 10 mm diameter borosilicate glass tubes and sealed. Solutions were allowed to equilibrate for thirty minutes prior to measuring light scattering. […] The pH and salt concentration were adjusted via overnight dialysis at 4° C. and their final concentration adjusted to 1.0 g/L. […] The scattering wave vector is defined as q=4πn sin (θ/2)/λ, where θ is the scattering angle, and λ=514.5, the wavelength of the argon laser in vacuum, and n is 1.33, the refractive index of water. The temperature of the sample was held at constant temperature of 4 to 37±0.1° C. by a circulating water bath. The correlation function was analyzed using CONTIN analysis [NT] times for the correlation functions at measured angles. […] The delay times (τ) were converted to Γ and graphed versus q^2. The slope of the fitted line is the diffusion coefficient (D). […] All solutions were filtered with 0.22 μm hydrophobic PVDF membranes (Fisher Scientific) into 10 mm diameter borosilicate glass tubes and sealed. Solutions were allowed to equilibrate for thirty minutes prior to measuring light scattering.

γ-crystallin = assay: Circular dichroism of modified γ-crystallin (secondary structure); type: biochemical; settings: 0.5 mg/mL, 22° C., versus native protein
Method: Crystallin samples were dialyzed overnight into 10 mM Na2HPO4/NaH2PO4 buffer pH 6.8 and measured at a concentration of 0.5 mg/mL. CD spectra were measured on a Jasco J715 spectropolarimeter at 22° C. using a quartz cell of 1 mm path length.

[1] = tested on: human corneal epithelial cells (EpiOcular™ tissue); assay: Trans-epithelial transport across epithelium construct; type: in vitro ADME
Method: The transport of the CAPEG4 across an epithelium construct was studied. The epithelium is the outer layer of the cornea and transport across the epithelium has proven to be challenging.
Specifically, the CAPEG4 construct in solution (10) was added to the top of an apparatus including a tissue culture plastic insert (11) containing culture medium (12) and an epithelium construct. (FIG. 19).

[2] = 16 mg/mL CAPEG4, blank insert (no tissue) at 15 min

NCCOCCOCCOCCOCCC(=O)O [CAPEG4]
Rh (γS-crystallin; fast mode (monomer), 37° C.): 3 nm | Rh (γS-crystallin; fast mode (monomer), 37° C., listed as CAPEG): 2.9 nm | Rh (γS-crystallin; fast mode (monomer, first Rh column), 22° C.): 2.8 nm | Rh (γS-crystallin; fast mode (monomer, first Rh column), 22° C., listed as CAPEG): 2.9 nm | secondary structure of modified γ-crystallin (CD spectra) (γ-crystallin): showed a similar trend to modifications made with PEG4 and PEG24 | Bottom Average ([1]; 1 mg/ml CAPEG4, 15 min): 13 mcg/well | Top Average ([1]; 1 mg/ml CAPEG4, 15 min): 449 mcg/well | Top mcg/well ([1]; 1 mg/ml CAPEG4, 15 min): 427 mcg/well and 472 mcg/well | Bottom % (stock) ([1]; 1 mg/ml CAPEG4, 15 min, stock 543 mcg/well): 2.4% | Bottom Average ([1]; 1 mg/ml CAPEG4, 30 min): 31 mcg/well | Bottom mcg/well ([1]; 1 mg/ml CAPEG4, 30 min): 26 mcg/well and 37 mcg/well | Top Average ([1]; 1 mg/ml CAPEG4, 30 min): 446 mcg/well | Top mcg/well ([1]; 1 mg/ml CAPEG4, 30 min): 448 mcg/well and 445 mcg/well | Bottom % (stock) ([1]; 1 mg/ml CAPEG4, 30 min, stock 543 mcg/well): 5.8% | Bottom Average ([1]; 1 mg/ml CAPEG4, 45 min): 8 mcg/well | Bottom mcg/well ([1]; 1 mg/ml CAPEG4, 45 min): 9 mcg/well and 8 mcg/well | Top Average ([1]; 1 mg/ml CAPEG4, 45 min): 443 mcg/well | Top mcg/well ([1]; 1 mg/ml CAPEG4, 45 min): 459 mcg/well and 428 mcg/well | Bottom % (stock) ([1]; 1 mg/ml CAPEG4, 45 min, stock 543 mcg/well): 1.5% | Bottom Average ([1]; 1 mg/ml CAPEG4, 60 min): 9 mcg/well | Bottom mcg/well ([1]; 1 mg/ml CAPEG4, 60 min): 8 mcg/well and 11 mcg/well | Top Average ([1]; 1 mg/ml CAPEG4, 60 min): 421 mcg/well | Top mcg/well ([1]; 1 mg/ml CAPEG4, 60 min): 454 mcg/well and 388 mcg/well | Bottom % (stock) ([1]; 1 mg/ml CAPEG4, 60 min, stock 543 mcg/well): 1.7% | Bottom Average ([1]; 1 mg/ml CAPEG4, 90 min): 31 mcg/well | Top Average ([1]; 1 mg/ml CAPEG4, 90 min): 463 mcg/well | Top mcg/well ([1]; 1 mg/ml CAPEG4, 90 min): 467 mcg/well and 459 mcg/well | Bottom % (stock) ([1]; 1 mg/ml CAPEG4, 90 min, stock 543 mcg/well): 5.7% | Bottom Average ([1]; 1 mg/ml CAPEG4, 120 min): 25 mcg/well | Bottom mcg/well ([1]; 1 mg/ml CAPEG4, 120 min): 21 mcg/well and 30 mcg/well | Top Average ([1]; 1 mg/ml CAPEG4, 120 min): 481 mcg/well | Top mcg/well ([1]; 1 mg/ml CAPEG4, 120 min): 453 mcg/well and 510 mcg/well | Bottom % (stock) ([1]; 1 mg/ml CAPEG4, 120 min, stock 543 mcg/well): 4.7% | Bottom Average ([1]; 1 mg/ml CAPEG4, Time 0 harvest): 3 mcg/well | Bottom mcg/well ([1]; 1 mg/ml CAPEG4, Time 0 harvest): 4 mcg/well and 3 mcg/well | Top Average ([1]; 1 mg/ml CAPEG4, Time 0 harvest): 450 mcg/well | Top mcg/well ([1]; 1 mg/ml CAPEG4, Time 0 harvest): 446 mcg/well and 453 mcg/well | Bottom % (stock) ([1]; 1 mg/ml CAPEG4, Time 0 harvest, stock 543 mcg/well): 0.6% | Bottom Average ([1]; 16 mg/mL CAPEG4, 15 min): 60 mcg/well | Bottom mcg/well ([1]; 16 mg/mL CAPEG4, 15 min): 58 mcg/well and 62 mcg/well | Top Average ([1]; 16 mg/mL CAPEG4, 15 min): 6375 mcg/well | Top mcg/well ([1]; 16 mg/mL CAPEG4, 15 min): 5842 mcg/well and 6908 mcg/well | Bottom % (stock) ([1]; 16 mg/mL CAPEG4, 15 min, stock 8186 mcg/well): 0.7% | Bottom Average ([1]; 16 mg/mL CAPEG4, 30 min): 99 mcg/well | Bottom mcg/well ([1]; 16 mg/mL CAPEG4, 30 min): 93 mcg/well and 105 mcg/well | Top Average ([1]; 16 mg/mL CAPEG4, 30 min): 6312 mcg/well | Top mcg/well ([1]; 16 mg/mL CAPEG4, 30 min): 6099 mcg/well and 6526 mcg/well | Bottom % (stock) ([1]; 16 mg/mL CAPEG4, 30 min, stock 8186 mcg/well): 1.2% | Bottom Average ([1]; 16 mg/mL CAPEG4, 45 min): 548 mcg/well | Bottom mcg/well ([1]; 16 mg/mL CAPEG4, 45 min): 677 mcg/well and 418 mcg/well | Top Average ([1]; 16 mg/mL CAPEG4, 45 min): 6335 mcg/well | Top mcg/well ([1]; 16 mg/mL CAPEG4, 45 min): 6313 mcg/well and 6356 mcg/well | Bottom % (stock) ([1]; 16 mg/mL CAPEG4, 45 min, stock 8186 mcg/well): 6.7% | Bottom Average ([1]; 16 mg/mL CAPEG4, 60 min): 149 mcg/well | Bottom mcg/well ([1]; 16 mg/mL CAPEG4, 60 min): 160 mcg/well and 139 mcg/well | Top Average ([1]; 16 mg/mL CAPEG4, 60 min): 6972 mcg/well | Top mcg/well ([1]; 16 mg/mL CAPEG4, 60 min): 6450 mcg/well and 7494 mcg/well | Bottom % (stock) ([1]; 16 mg/mL CAPEG4, 60 min, stock 8186 mcg/well): 1.8% | Bottom Average ([1]; 16 mg/mL CAPEG4, 90 min): 525 mcg/well | Bottom mcg/well ([1]; 16 mg/mL CAPEG4, 90 min): 525 mcg/well | Top Average ([1]; 16 mg/mL CAPEG4, 90 min): 6457 mcg/well | Top mcg/well ([1]; 16 mg/mL CAPEG4, 90 min): 6122 mcg/well and 6792 mcg/well | Bottom % (stock) ([1]; 16 mg/mL CAPEG4, 90 min, stock 8186 mcg/well): 6.4% | Bottom Average [1, 2]: 1837 mcg/well | Bottom mcg/well [1, 2]: 1837 mcg/well | Top Average [1, 2]: 7857 mcg/well | Top mcg/well [1, 2]: 7857 mcg/well | Bottom % (stock) ([1]; 16 mg/mL CAPEG4, blank insert (no tissue) at 15 min, stock 8186 mcg/well): 23%
